{"source": "patent US10702542B2", "about": "“Glycan therapeutics and related methods thereof” (priority 2015, dated 2020)", "key": {"gut microbiota": {"system": "gut microbiota", "assay": "Mouse model of Clostridium difficile infection: shifts in microbial gut constituents (16S rRNA)", "assay_type": "in vivo, mice (female C57BL/6)", "conditions": "Day 6, FIG. 13; predicted from 16S rRNA sequencing using PICRUST", "experimental": "(§1) Mice (female C57BL/6, 8-10 weeks old, 16-18 grams each; Harlan Laboratories, Indianapolis, Ind.) were housed in groups of 3 per cage, with 4 cages per treatment group. Mice were exposed to a cocktail of antibiotics in their drinking water for a period of 9 days, starting on day −14, fourteen days before Clostridium difficile challenge on day 0. The antibiotic cocktail consisted of 1% glucose, kanamycin (0.5 mg/ml), gentamicin (0.044 mg/ml), colistin (1062.5 U/ml), metronidazole (0.269 mg/ml), ciprofloxacin (0.156 mg/ml), ampicillin (0.1 mg/ml) and vancomycin (0.056 mg/ml). Three days prior to Clostridium difficile challenge (on Day −3), mice received a single dose of clindamycin (10 mg/kg) in a volume of 0.5 mL distilled water by oral gavage (PO) (see Table 10). All chemicals were purchased from Sigma-Aldrich Corp. (St. Louis, Mo.). On day 0, mice were challenged with Clostridium difficile (strain VPI 10463 (ATCC-43255)) spores at approximately 4.5 log10 spores per mouse, PO, in a dose volume of 0.5 mL distilled water.\nTo determine how the gut microbiota composition responds to treatment with glycan therapeutics, 16S rRNA sequencing of fecal pellets on the V4 variable region using standard protocols from the Earth Microbiome Project was performed (www.earthmicrobiome.org/emp-standard-protocols/). […]"}, "[1]": {"system": "Clostridium difficile (strain VPI 10463 (ATCC-43255))", "assay": "Mouse model of Clostridium difficile infection: disease-associated phenotypes", "assay_type": "in vivo, mice (female C57BL/6)", "experimental": "This experiment was conducted to analyze the effects of glycan therapeutics in a mouse model of Clostridium difficile infection (Chen et al, 2008, A Mouse Model of Clostridium difficile—Associated Disease. Gastroenterology 135(6), 1984-1992). In this model, normal mice were exposed to an antibiotic regimen that renders them susceptible to C. difficile infection and disease symptoms, similar with respect to their development and manifestation of human clinical disease. In humans, the disease is most often the result of exposure to broad spectrum antibiotics which is thought to result in intestinal dysbiosis and subsequent increased colonic colonization with C. difficile. The increased bio-burden of C. difficile leads to toxin production by the bacterium and colonic inflammation. Clinical manifestations in humans include diarrhea, weight loss, intestinal inflammation, fever and dehydration. The clinical incidence of C. difficile infection and disease is about 750,000 cases per year in the US.\nas §1\nDisease-associated phenotypes were recorded for a duration of ten days starting on the day of Clostridium difficile challenge (on day 0) through day 10. The phenotypes, including lethargy, hunched posture and ruffled coat, wet tail/abdomen and hypothermia were scored from 0 to 4: Normal=0; Lethargic=1; Lethargic+Hunched=2; Lethargic+Hunched+Wet tail/abdomen (diarrhea)=3; and Lethargic+Hunched+Wet tail/abdomen+Hypothermic=4. Death (day 0 to day 10 or 11) and weight (day 1 to day 7 and day 10) of the animals was also monitored and recorded.\nA treatment's ability to protect animals from death through day 6 in these experiments indicates disease prevention, e.g., in a human.\nEffects of treatments was assessed by comparing the disease-associated phenotypes in glycan-treated, untreated (plain water) and vancomycin-treated groups. FOS is a commercially-available, non-digestible fructooligosaccharide."}, "[2]": {"conditions": "vancomycin PO gavage QD days 0 to 4"}}}
{"smiles": "CN[C@H](CC(C)C)C(=O)N[C@H]1C(=O)N[C@@H](CC(N)=O)C(=O)N[C@H]2C(=O)N[C@H]3C(=O)N[C@H](C(=O)N[C@H](C(=O)O)c4cc(O)cc(O)c4-c4cc3ccc4O)[C@H](O)c3ccc(c(Cl)c3)Oc3cc2cc(c3O[C@@H]2O[C@H](CO)[C@@H](O)[C@H](O)[C@H]2O[C@H]2C[C@](C)(N)[C@H](O)[C@H](C)O2)Oc2ccc(cc2Cl)[C@H]1O", "note": "[Vancomycin, vancomycin]", "values": [{"measurement": "predicted functional potential of the gut microbiome to convert primary bile acids to secondary bile acids", "setting": "gut microbiota", "result": "not observed"}, {"measurement": "animal survival versus animals treated with water (vehicle)", "setting": "[1]; Kaplan-Meier, FIG. 10", "result": "significant difference"}, {"measurement": "clinical score of survivors", "setting": "[1]; score 0 to 4, after end of treatment, days 7 to 10/11", "result": "above 0"}, {"measurement": "animals died by day 10", "setting": "[1]; [2]", "result": 17, "unit": "%"}, {"measurement": "animals survived to day 7", "setting": "[1]; [2]", "result": 100, "unit": "%"}, {"measurement": "clinical signs on day 10", "setting": "[1]; [2]", "result": "exhibited clinical signs"}]}
